Data taken from patent EP0326579B1, “IMPROVEMENT OF THE BIOCOMPATIBILITY OF SOLID SURFACES” (BIO-METRIC SYSTEMS, INC., priority 1986, dated 1988).

Experiments:
Bovine endothelial cells [1] = assay: Attachment of endothelial cells to modified plastic surfaces (viable cell counts, trypan blue); type: cell-based; settings: treated polyvinyl chloride surface; number of viable cells attached to each piece
Description: B. Attachment of Bovine Endothelial Cells to Modified Plastic Surfaces. Bovine endothelial cells were collected from fetal animals 8-24" in length. Cornea, aorta and umbilical endothelial cells were harvested aseptically. Cells were grown in a 5% CO₂ incubator at 37°C in a known high glucose cell growth medium such as Dulbecco's modified Eagle's medium (described in R. Dulbecco and G. Freeman, Virology, Vol. 8:396 (1959) and J. D. Smith, G. Freeman, M. Vogt and R. Dulbecco, Virology, Vol. 12:185-196 (1960)) with 25mmole HEPES buffer, 10% bovine calf serum, and 2.5 micrograms amphotericin B/ml (the "growth media"). Once the plates, tubes or sheets were prepared; cell cultures were prepared from primary cell lines. The cells were detached from the cell culture surface with a 0.25% solution of trypsin and resuspended in the growth media. Cells were then counted using a trypan blue (0.4%) solution and a hemocytometer. Various concentrations of cells were layered on the prepared materials. Cell attachment was monitored for various time periods from 5 minutes to 14 days. Attachments were determined by at least two methods. In one, sample materials were removed from culture media and washed 2 times with sterile saline. Cell stains were then applied and total cells on the surface were counted. A second method was to trypsinize the cells off the surface with a trypsin solution and count using the trypan blue method. Representive results of the attachment and outgrowth of endothelial cells on precoated polyvinyl chloride plastic pieces are reported in Table 3. The number of viable cells attached to each piece were determined by trypan blue staining procedures.

Bovine endothelial cells [2] = assay: Outgrowth measurement using endothelial cells from a point of origin; type: cell-based; settings: treated polyvinyl chloride surface

Substance | 3-day cell counts (Bovine endothelial cells [1]) | 7-day cell counts (Bovine endothelial cells [1]) | 7-day outgrowth (Bovine endothelial cells [2])
ANP-EAC-COL: Human placenta Type IV collagen coupled to ANP-EAC-NOS (photolabeled collagen) | 14500 | 15833 | 1.0-3.0 mm
BBA-COL: Human placenta Type IV collagen coupled to the NOS ester of benzoylbenzoic acid | 5749 | 21500 | 2.5-4.0 mm
